Consider four molecules from US20210046101A1, “COMBINATION THERAPEUTICS” (UCL BUSINESS LTD, priority 2018, published 2021).

Assay [1] relates to PMKs derived from Tnfr1^KO;Hoil-1^E-KO mice. Kind of assay: Viability of PMKs from Tnfr1^KO;Hoil-1^E-KO mice after death ligand / Poly(I:C) stimulation, CellTiter-Glo assay. The settings on record: 24 hours; TRAIL 50 ng/ml, CD95L 50 ng/ml, Poly(I:C) 100 μg/ml; control = Tnfr1^KO PMKs with HOIL-1 (FIG. 4a). Type of assay: cell-based, mouse. The protocol:
FIG. 4. CD95L- and TRAIL-induced cell death drives TNFR1-independent dermatitis. a, PMKs derived from adult mice with the indicated genotypes were treated or not for 24 hours with TRAIL [50 ng/ml], CD95L [50 ng/ml] and Poly(I:C) [100 μg/ml]. Cell viability (%) was measured by CellTiter-Glo assay. Results are expressed as mean values±SEM. (n=7 mice per genotype). **p≤0.01, ***p≤0.001, NS=not significant. Control mice represent a pool of Tnfr1^KO;Hoil-1^fl/fl;K14-Cre− and Tnfr1^KO;Hoil-1^fl/wt;K14-Cre+ mice b, Representative images of mice with the indicated genotypes. c, Severity score of dermatitis was assessed at P70 in mice with the indicated genotypes. The total score was determined by evaluating the regions of the body affected by the lesions (black) and the character of the lesion (white). Tnfr1^KO;Hoil-1^E-KO (n=6), Trail-r^KO;Tnfr1^KO;Hoil-1^E-KO (n=4), Tlr3^KO;Tnfr1^KO;Hoil-1^E-KO (n=4), Cd95^E-DD; Tnfr1^KO; Hoil-1^E-KO (n=12), Trail-r^KO; Tlr3^KO;Tnfr1^KO;Hoil-1^E-KO (n=20) and Cd95^E-DD;Trail-r^KO;Tnfr1^KO;Hoil-1^E-KO (n=19), Mlkl^KO;Tnfr1^KO;Hoip^E-KO (n=13). d, Kaplan-Meier survival curve of mice with the indicated genotypes. […]
Isolation, culture and viability of primary murine keratinocytes. […] On the last day, cell viability was measured using the CellTiter-Glo Luminescent Cell Viability Assay kit (Promega) following the manufacturers instructions. […]

The test system of assay [2] is PMKs derived from Hoip^E-KO mice. As to the kind of experiment: Viability of primary murine keratinocytes (PMKs) from Hoip^E-KO mice cultured with inhibitors, CellTiter-Glo assay. Type of assay: cell-based, mouse. The settings on record: no exogenous stimulus, cultured four days with 20 μM Z-VAD-fmk, 10 μM Necrostatin-1s or 1 μM RIPK3 inhibitor (FIG. 3e). The source says:
FIG. 3. Aberrant apoptosis drives lethal dermatitis in Hoip^E-KO and Hoil-1^E-KO mice. a, Quantification of TUNEL and CC3 positive cells in skin sections from mice with the indicated genotypes (n=3 mice per genotype). Error bars represent mean values±s.e.m. *P≤0.05, **P≤0.01, ***P≤0.001. b, Representative images of skin sections from mice with the indicated genotypes (n=4) stained with antibody against CD45 (red) at P0. Nuclei were stained with DAPI (blue). White dashed lines separate the epidermis (above) from the dermis (below). Scale bar, 50 μm. c, Flow cytometry analysis of immune cells in skin samples from mice with the indicated genotypes at the indicated postnatal days. […] Lysates and IP were analysed by Western blotting for the indicated proteins. e, PMKs derived from Hoip^E-KO and control mice were cultured for four days in absence (NT: not-treated) or presence of the inhibitors Necrostatin-1s (N), ZVAD-fmk (Z) or RIPK3i. Cell viability (%) was measured by CellTiter-Glo assay on day four. […] CC3: cleaved Caspase-3. f, Cell viability (%) measured by CellTiter-Glo assay of PMKs derived from adult mice with the indicated genotypes. Results are expressed as mean values±SEM (n=8 mice per genotype). […] CC3: cleaved Caspase-3. i, Quantification of TUNEL and CC3 positive cells in skin sections from mice with the indicated genotypes (n=3 mice per genotype). […]
On the technique in general: ATP-based viability assays read luminescence as a measure of living cells.

Where a SMILES comes first, the peptide text is derived from it. The star is where a group is joined. Cbz = O=C(OCc1ccccc1)*; CH2F = FC*

Consider “Polyinosinic:polycytidylic acid [Poly(I:C)]”, for which, in assay [1], the “cell viability as compared to control PMKs (CellTiter-Glo)” value is “decreased cell viability”.

Regarding `CN1C(=O)NC(Cc2c[nH]c3c(Cl)cccc23)C1=O` (stereo not shown) [necrostatin-1s, Necrostatin-1s], the “loss in viability of HOIP-deficient PMKs (cell viability, CellTiter-Glo)” value in assay [2] is on record as “prevented”.

With `COC(=O)C[C@H](NC(=O)[C@H](C)NC(=O)[C@@H](NC(=O)OCc1ccccc1)C(C)C)C(=O)CF` [ZVAD, Z-VAD-fmk] (Cbz-Val-Ala-Asp(OMe)-CH2F), the “loss in viability of HOIP-deficient PMKs (cell viability, CellTiter-Glo)” value in assay [2] is reported as “prevented”.

B1: TRAIL: TNF-related apoptosis-inducing ligand; used as mouse iz-TRAIL (protein, UniProt P50592 39-291, looked up)
extracellular domain: YMYFTNEMKQLQDNYSKIGLACFSKTDEDFWDSTDGEILNRPCLQVKRQLYQLIEEVTLRTFQDTISTVPEKQLSTPPLPRGGRPQKVAAHITGITRRSNSALIPISKDGKTLGQKIESWESSRKGHSFLNHVLFRNGELVIEQEGLYYIYSQTYFRFQEAEDASKMVSKDKVRTKQLVQYIYKYTSYPDPIVLMKSARNSCWSRDAEYGLYSIYQGGLFELKKNDRIFVSVTNEHLMDLDQEASFFGAFLIN
modifications: extracellular domain isoleucine zipper fusion
On to B1, for which, in assay [1], the “cell viability as compared to control PMKs (CellTiter-Glo)” value is listed as “decreased cell viability”.
